# Laboratory results as given in patent publication US10206944B2, “Chondroitin for use in medicine” (ALTERGON S.A., priority 2012, dated 2019).
# Entries after “also recorded” stand apart in the source; their conditions may differ.
# Tests used:
# [1] = system: HaCat cells; assay: Wound-healing test by time-lapse microscopy (keratinocyte growth); assay type: cell-based, human; details: for time to wound repair (closure of the cut): HaCat confluent layer with cut, time-lapse, control closes after 40 h; for effect on the repair process: concentration of 0.1 w/v
# Description: HaCat cells, an immortalised cell line of human keratinocytes, are used as model system. The HaCat cells are grown and amplified in Dulbecco's Modified Eagle Medium (DMEM) containing 10% foetal bovine serum (FBS)+1% Pen-Strep solution (10,000 units of penicillin-G/mL and 10 mg of streptomycin/mL in saline solution) in an incubator for cell cultures (37° C., 5% CO2 in humid air). The wound-healing experiments are conducted by time-lapse optical microscopy, a technique that allows cell behaviour to be monitored for lengthy times (2-4 days) in terms of adhesion, proliferation and motility. The system consists of an inverted optical microscope (Zeiss Axiovert 200), a thermostatic bath (LAUDA Ecoline), a CO2 microincubator with geometry such as to house plates of variable dimensions (from 6 to 96 wells), and a control unit for the output gases (air and CO2). The instrument is also equipped with a digital video camera and a control motor, which allows the incubator to move along directions x, y and z so that the images selected by the operator can be recorded and acquired at pre-set intervals.
# The system thus assembled allows the cells to be maintained in an environment that reproduces the optimum conditions for cell growth (atmosphere with 5% v/v of CO2 in humid air and temperature of 37±0.1° C.), and monitored throughout the experiment. The system is also equipped with software which allows accurate analysis of the images. In particular, the instrumentation is equipped with automated software which allows wound repair to be calculated in wound-healing tests and provides data about the repair rate and cell migration rate, which are important parameters for evaluating the biorevitalising effect of substances that can accelerate or inhibit wound repair in vitro. […]
# [2] = system: mice or Sprague Dawley rats; assay: Acute toxicity study; assay type: in vivo, mouse and rat
# Description: Acute toxicity study—The study was conducted on two animal models, the mouse and rat, to which chondroitin was administered orally (p.o.) or intravenously (i.v.). For each experiment the animals (mice or Sprague Dawley rats) were divided into 5 groups of 20 (10 males and 10 females) which received p.o. or i.v. chondroitin at doses ranging from 250 to 2,000 mg/Kg for oral administration and 20 to 160 mg/Kg for intravenous administration; the volume administered was 10 mL/Kg for p.o. administration and 5 mL/Kg for i.v. administration.
# At the end of the treatment the animals were euthanized and a complete autopsy was performed.
# [3] = system: rats (Sprague Dawley); assay: Chronic toxicity study, 26 weeks; assay type: in vivo; details: rat
# Description: Chronic toxicity study—This study was conducted on rats (Sprague Dawley) treated daily for 26 weeks with chondroitin administered p.o. (by gavage) at doses ranging from 50 to 200 mg/Kg. The general state of health and behaviour of the treated animals were monitored daily, and weight variations, haematological status and urine were evaluated every 7 days. […] At the end of the study all animals were euthanized and an autopsy and histopathological analysis of the main organs (lungs, heart, liver, ovaries, uterus, testicles, kidneys, pituitary gland, lymph nodes and gastrointestinal tract) were conducted. None of these evaluations indicated any significant differences between the animals treated with chondroitin and the control animals which received the carrier alone.
# [4] = system: 5 strains of Salmonella typhimurium; assay: Ames' test; assay type: cell-based; details: up to 2.0 mg/plate, with and without metabolic activation
# Description: The chondroitin mutagenicity studies were conducted on different mutagenicity and genotoxicity models in vitro and in vivo (Sirtori C., File CONDRAL®, Vol. IV—Reproductive Toxicity and Mutagenesis; Slater E. et al., Rapid detection of mutagens and carcinogens, Cancer Res. 1971, 31: 970-973).
# In vitro test, Ames' test—The test was performed with and without metabolic activation on 5 strains of Salmonella typhimurium. Chondroitin was tested at concentrations of between 2.0 μg/plate and 2.0 mg/plate.
# [5] = system: Escherichia coli strain sensitive to the action of mutagenic substances; assay: DNA-repair test; assay type: cell-based; details: highest doses, with and without metabolic activation
# Description: In vitro test, DNA-repair test—The DNA alteration test was conducted with a strain of Escherichia coli sensitive to the action of mutagenic substances. In the study, mitomycin C was used as positive control and penicillin G as negative control.
# [6] = system: Wistar rats; assay: Study of fertility and reproductive capacity; assay type: in vivo, rat
# Description: Study of fertility and reproductive capacity—The toxicology study of the possible effects of chondroitin on male fertility and female reproductive capacity was conducted on 200 Wistar rats (160 females and 40 males), randomised into four groups, each consisting of 40 females and 10 males, treated with 0, 50, 100 or 200 mg/Kg of chondroitin. Each group of female rats was divided in turn into two sub-groups of 20 animals; the first group received the product daily from the 14th day before the start of the mating period until the 19th day of gestation, and the second received it until the 21st day after the birth. All the males were treated with chondroitin for 60 days before mating and throughout the gestation period of the females. The protocol used follows the guidelines of Directive EEC 85/571.
Substance,time to wound repair (closure of the cut) [1],effect on the repair process [1],"LD50 ([2]; acute, single dose i.v., mouse and rat)","signs of toxicity or mortality ([2]; examined every 24 h for 40 days, up to 2,000 mg/Kg p.o., 160 mg/Kg i.v.)","chronic toxicity, conclusion ([3]; 50 to 200 mg/Kg p.o., 26 weeks)","No toxicity (dose), chronic 26 weeks ([3]; p.o., daily for 26 weeks)",point-reverse mutation (Ames' test) [4],interaction with / alteration of DNA (DNA-repair test) [5],"effect on fertility of male rats ([6]; daily oral administration for 60 days, up to 200 mg/Kg)","effect on reproductive capacity of females ([6]; daily up to 200 mg/Kg, 15 days before mating to 21st day of lactation)"
chondroitin,less than 20 h,accelerates the repair process,> 160 mg/kg,no signs of toxicity or mortality were observed,non-toxic at the doses used,No toxicity >200 mg/kg/day p.o.,do not induce a specific point-reverse mutation; also recorded: Up to 2.0 mg/plate: no point-reverse mutation,does not interact and does not alter the DNA; also recorded: Even at higher doses it does not interact and does not alter,"no effect on the fertility of male rats; also recorded: the dose of 200 mg/Kg, has no effect on the fertility of male",no effect on the reproductive capacity of females; also recorded: no effect on the reproductive capacity of the females
"chondroitin sulphate [CS, reference compound]",> 70 h,slows it,–,–,–,–,–,–,–,–
